In US20030203908A1, “Dihydrofolate reductase inhibitors” (priority 2000, published 2003):
Counter-ions that a name gives are not always drawn. Like-named read-outs stand apart in the source and are kept apart here.

Experiments:
[1] = target: T1, wild-type (wt) DHFR from Plasmodium falciparum (Plasmodium falciparum, UniProt P13922, N108S/R59C); experiment: Inhibition of wild-type pfDHFR (spectrophotometric, Ki); format: biochemical;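 note: Affinity-purified enzyme, initial reaction rates measured across a range of inhibitor concentrations, Ki obtained by nonlinear least-squares fitting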
T1 construct: The Dihydrofolate Reductase Domain of Plasmodium falciparum Thymidylate Synthase-Dihydrofolate Reductase; made in house
Method: (§1) For determination of the Ki values of a number of synthesized analogues, the assay reactions were initiated with affinity-purified enzyme (^˜0.005-0.01 U ml^−1), and the initial velocities in the presence of varying concentrations of inhibitors were analysed by non-linear least square fit using Kaleidagraph™ software.

[2] = target: T2, A16V.S108T mutant (mut) of DHFR from Plasmodium falciparum (Plasmodium falciparum, UniProt A7UD81, A16V/S108T); experiment: biochemical
T2 construct: The Dihydrofolate Reductase Domain of Plasmodium falciparum Thymidylate Synthase-Dihydrofolate Reductase; made in house
Method: as §1

[3] = test system: A16V.S108T mutant (mut) of DHFR from Plasmodium falciparum; experiment: biochemical; conditions: resistance factor
Method: as §1

[4] = test system: wild-type (TM4/8.2) strain of P. falciparum; experiment: microbe, parasite or virus in culture; format: cell-based, Plasmodium falciparum; conditions: Plasmodium falciparum; wild-type strain TM4/8.2
Method: Mol. Biochem. Parasitol. […] Science, 1976, 193, 673-675]. In vitro antimalarial activity was determined by using [^3H]-hypoxanthine incorporation method [Desjardins, R. E.; Canfield, C. J.; Haynes, J. D.; Chulay, J. D. Quantitative assessment of antimalarial activity in vitro by a semiautomated microdilution technique. Antimicrob Agents Chemother. 1979, 16, 710-718]. The drugs were initially dissolved in DMSO and diluted with the culture media. Aliquots (25 μl) of drug solution of different concentrations was placed in 96-well plate together with 200 μl of 1.5% cell suspension of parasitized erythrocytes containing 1-2% parasitemia. Final concentration of DMSO was 0.1% where there was no effect on the parasite growth. The mixtures were incubated in a 3% CO2 incubator at 37° C. After 24 h of incubation, 25 μl (0.25 μCi) of [^3H]-hypoxanthine were added to each well. The mixtures were further incubated under the same condition for 18-24 h. DNA of parasites was harvested onto glass filter paper (Unifilter, Packard, USA). The filters were dried and liquid scintillation fluid was added for radioactivity measurement in a 6-probe liquid scintillation-counter (Packard, USA).

[5] = target: T3, human DHFR (Homo sapiens, UniProt P00374); experiment: Inhibition of human DHFR (I50-derived Ki); format: biochemical; conditions: human DHFR;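 note: recombinant human DHFR expressed in E. coli and purified by methotrexate affinity chromatography, enzyme activity followed spectrophotometrically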
T3 construct: made in house; host or cells: E. coli M15
T3 sequence (P00374 1-187): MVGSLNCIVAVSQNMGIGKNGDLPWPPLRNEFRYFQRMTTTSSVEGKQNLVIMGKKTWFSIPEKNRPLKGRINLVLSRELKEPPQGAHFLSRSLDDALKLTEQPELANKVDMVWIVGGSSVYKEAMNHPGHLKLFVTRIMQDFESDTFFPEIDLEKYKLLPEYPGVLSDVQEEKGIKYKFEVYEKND
Method: (§2) Folic acid and NADPH, were purchased from Sigma. Dihydrofolate was prepared from folic acid dithionate reduction. Methotrexate (MTX) was from Lederle Laboratories. MTX sepharose CL-6B was prepared according to the protocol described by Dann. et al. IPTG came from Boehringer Manheim. The expression system used for recombinant human DHFR production, which includes the plasmid PB-E1/RB SII, SphI-HDHFR expressed in E. coli M15, was supplied by Santi, D. V (Department of Biochemistry and Biophysics and Department of Pharmaceutical Chemistry, University of California). Recombinant T. Cruzi DHFR-TS was produced using the system pET 11c with the insertion of the complete ORF of the gene tc-dhfrts. The resulting plasmid was called pET DT.
(§3) Human and T.cruzi DHFR were produced using inducible expression systems. For human DHFR, fresh overnight cultures of E. coli M15, transformed with the plasmid, pB-E1/RB SII, SphI-HDHFR, were grown in LB and 0.1 mg/ml ampicillin medium at 28° C. For T.cruzi DHFR-TS, cultures of E. coli, BL21 (DE3) transformed with the plasmid pETDT system were grown at 37° C. The same purification protocol was used for both systems. When OD600 was at 0.8, cells pellets were collected by centrifugation, suspended in 50 ml of LB medium, containing 0.1 mg/ml of ampicillin. 10 ml of this preinocule was added to 2 litres of LB medium. Cultures were shaken at 28° C. or 37° C. (for human and T. cruzi DHFR respectively) and induction with IPTG ImM was performed when OD600 reached 0.8. After IPTG induction, cells were grown overnight in a shaker at 28° C. or 5 hours at 28° C. or 37° C. (for human and T. cruzi DHFR respectively) and then harvested by centrifugation.
(§4) Cell pellets were suspended in sonication buffer (2× TES DHFR:TES 100 mM, 2-mercaptoethanol 150 mM, EDTA 2 mM pH=7) containing protease inhibitors.
(§5) Crude extract was circulated through the MTX-Sepharose column at 4° C. at a flow rate of 0.2 ml/min until the protein was bound to the resin. The column was washed with an excess of buffer B (KH2PO410 mM pH 7, KC1 1M). Protein was eluted at 0.2 min/ml with an elution buffer (100 mM TES, 10 mM DTT, 2 mM EDTA, DHF 8.5 mM), the elution profile was collected in 1 ml fractions using a Pharmacia LKB Frac 200 collector. Finally, the protein was desalted using molecular size exclusion chromatography in a Pharmacia G-25 column. Fractions containing DHFR activity were pooled and concentrated by ultrafiltration using centripreps Amicon.
(§6) The purity of the protein preparation was assessed by detection of a single band of the correct molecular weight stained with coomasie blue following a 12% SDS-PAGE. Protein concentration was determined by the method of Bradford using a BSA as a standard. DHFR activity was measured spectrophotometrically by monitoring the decrease in absorbance at 340 mm. […] One unit of enzyme, is defined as the amount of enzyme which produces 1 nmol of product per min using ε of 12300M^−1 at 340 nm.
(§7) Inhibition of dihydrofolate reductases by 1,2-dihydro-1,3,5 triazines was analysed with T. cruzi and human DHFR.
(§8) DHFR assays contained 30 mM dihydrofolate, 0.1 mM NADPH, 50 mM TES buffer pH 7, 75 mM 2-mercaptoethanol and specified amounts of inhibitors. The reaction was initiated by addition of 2.8 or 2.3 units of T. cruzi and human, respectively, and monitored at 340 nm.
(§9) Selective inhibition of dihydrofolate reductase by 1,2-dihydro-1,3,5-triazines was analysed with T. cruzi and human DHFR. DHFR assays contained 30 μM dihydrofolate, 0.1 mM NADPH, 50 mM TES buffer pH 7, 75 mM β-mercaptoethanol and specified amounts of inhibitors. The reaction was initiated by addition of 2.8 or 2.3 units of T. cruzi and human enzyme, respectively, and monitored at 340 nm. […] KiI 50=[I]0.5/((1+[S])/Km)

[6] = target: human DHFR; experiment: Inhibition of human DHFR (I50-derived Ki); format: biochemical;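 note: recombinant human DHFR expressed in E. coli and purified by methotrexate affinity chromatography, enzyme activity followed spectrophotometrically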
Method: as §2, §3, §4, §5, §6, §7, §8, §9

[7] = target: T4, DHFR-TS from Trypanosoma cruzi (Trypanosoma cruzi, UniProt Q27793); experiment: Inhibition of T. cruzi DHFR-TS (I50-derived Ki);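 for all read-outs here: enzymes were recombinant T. cruzi DHFR-TS and human DHFR, both expressed in E. coli and purified on a methotrexate affinity column, with dihydrofolate and NADPH as substrates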; format: biochemical; conditions: for Selectivity: human Ki / T. cruzi Ki
T4 construct: pET 11c with the insertion of the complete ORF of the gene tc-dhfrts; made in house; host or cells: E. coli BL21 (DE3)
T4 sequence (Q27793 whole entry): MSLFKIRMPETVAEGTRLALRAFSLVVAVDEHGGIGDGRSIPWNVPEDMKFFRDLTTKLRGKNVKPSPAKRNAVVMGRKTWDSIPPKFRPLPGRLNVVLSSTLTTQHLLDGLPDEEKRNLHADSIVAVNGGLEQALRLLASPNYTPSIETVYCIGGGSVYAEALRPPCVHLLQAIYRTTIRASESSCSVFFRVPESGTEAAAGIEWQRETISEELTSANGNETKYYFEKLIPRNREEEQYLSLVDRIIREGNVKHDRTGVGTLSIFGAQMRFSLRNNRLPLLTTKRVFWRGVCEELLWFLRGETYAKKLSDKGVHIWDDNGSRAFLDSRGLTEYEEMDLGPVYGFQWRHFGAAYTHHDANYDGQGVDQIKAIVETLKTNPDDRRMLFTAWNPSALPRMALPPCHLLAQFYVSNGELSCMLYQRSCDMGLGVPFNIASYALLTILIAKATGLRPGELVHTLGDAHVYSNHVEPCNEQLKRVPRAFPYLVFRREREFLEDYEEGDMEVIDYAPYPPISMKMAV
Method: DHFR activity was measured spectrophotometrically by monitoring the decrease in absorbance at 340 mm.
as §7, §8
Selective inhibition of dihydrofolate reductase by 1,2-dihydro-1,3,5-triazines was analysed with T. cruzi and human DHFR. DHFR assays contained 30 μM dihydrofolate, 0.1 mM NADPH, 50 mM TES buffer pH 7, 75 mM β-mercaptoethanol and specified amounts of inhibitors. The reaction was initiated by addition of 2.8 or 2.3 units of T. cruzi and human enzyme, respectively, and monitored at 340 nm.
KiI 50=[I]0.5/((1+[S])/Km)

T2 sequence (A7UD81 1-231 A16V/S108T): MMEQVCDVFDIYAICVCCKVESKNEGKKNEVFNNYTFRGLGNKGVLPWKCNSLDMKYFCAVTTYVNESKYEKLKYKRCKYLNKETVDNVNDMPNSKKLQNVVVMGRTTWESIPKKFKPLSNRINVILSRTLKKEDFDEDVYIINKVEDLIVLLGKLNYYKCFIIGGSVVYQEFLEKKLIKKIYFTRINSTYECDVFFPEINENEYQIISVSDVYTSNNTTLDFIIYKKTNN
T1 sequence (P13922 10-228 R59C/N108S): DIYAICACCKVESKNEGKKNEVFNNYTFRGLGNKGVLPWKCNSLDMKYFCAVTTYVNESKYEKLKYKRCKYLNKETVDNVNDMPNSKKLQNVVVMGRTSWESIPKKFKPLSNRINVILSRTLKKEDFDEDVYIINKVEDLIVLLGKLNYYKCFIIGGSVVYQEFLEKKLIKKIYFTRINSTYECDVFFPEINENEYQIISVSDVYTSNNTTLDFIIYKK

NC1=NC(c2cccc(O)c2)N(c2ccc(Cl)cc2)C(N)=N1 (stereo not shown) [(Ia) R2=m-hydroxyphenyl, 1-p-chlorophenyl-2-m-hydroxyphenyl-4,6-diamino-1,2-dihydro-1,3,5-triazine] was tested. Which Ki ([1]; Ki(wt) nM) did it give?
Its Ki is 6 ± 0.4 nM.

And the Ki [2]?
The Ki was 123 ± 13 nM.

What about the “Ki(mut)/Ki(wt)” value [3] of the same compound?
The value was 20.6.

And the IC50 [4]?
Its IC50 is 48 nM.

And the Ki ([5]; Human Ki (I50)(nM))?
Its Ki is 1680 nM.

What about the “Ki (human)/Ki (P. falc. mut)” value [6] of the same compound?
Its value is 13.7.

What about the “Ki (human)/Ki (P. falc. wt)” value [6] of the same compound?
Its value is 280.

And the “Ki (human)/Ki (T. cruzi)” value [6]?
The value was 56.

Which Ki ([1]; Ki(wt) nM) does the source give for NC1=NCN(c2ccc(Cl)c(Cl)c2)C(N)=N1 [(Ic) R2=H] here?
The Ki was 5.3 ± 0.7 nM.

What about the Ki [2] of the same compound?
Its Ki is 43.6 ± 5.8 nM.

What about the “Ki(mut)/Ki(wt)” value [3] of the same compound?
The value was 8.2.

What about the IC50 [4] of the same compound?
Its IC50 is 123 nM.

What about the Ki [7] of the same compound?
Its Ki is 36 nM.

What about the Selectivity [7] of the same compound?
The Selectivity was 1.9.

What about the “Ki (human)/Ki (T. cruzi)” value [6] of the same compound?
The value was 0.19.

Which results are given for NC1=NC(c2ccc(Br)cc2)N(c2cccc(Cl)c2)C(N)=N1 (stereo not shown) [(Ib) R2=4-bromophenyl]?
Ki ([1]; Ki(wt) nM): 27 ± 4.5 nM; Ki [2]: 21.9 ± 2.5 nM; Ki(mut)/Ki(wt) [3]: 0.8; IC50 [4]: 9100 nM

COc1ccc(C2N=C(N)N=C(N)N2c2ccc(Cl)cc2)cc1OC (stereo not shown) [(Ia) R2=3,4-dimethoxyphenyl] was tested. Which Ki ([1]; Ki(wt) nM) did it give?
The Ki was 32.7 ± 2 nM.

And the Ki [2]?
The Ki was 124 ± 5 nM.

What about the “Ki(mut)/Ki(wt)” value [3] of the same compound?
Its value is 3.8.

And the IC50 [4]?
The IC50 was 2270 nM.

And the Ki [7]?
The Ki was 386 nM.

And the Selectivity [7]?
The Selectivity was 67.

And the Ki ([5]; Human Ki (I50)(nM))?
The Ki was 25700 nM.

What does the source list for NC1=NC(c2cccc(OCc3ccccc3)c2)N(c2cccc(Cc3ccccc3)c2)C(N)=N1 (stereo not shown) [R2=3-BnOC6H4, X=H, Y=Bn, 1-m-benzylphenyl-2-m-benzyloxyphenyl-4,6-diamino-1,2-dihydro-1,3,5-triazine]?
Ki ([1]; Ki(wt) nM): 2.3 ± 0.3 nM; Ki [2]: 7.4 ± 0.9 nM; Ki(mut)/Ki(wt) [3]: 3.2; Ki [7]: 32 nM; Selectivity [7]: 9.1; Ki ([5]; Human Ki (I50)(nM)): 292 nM; Ki (human)/Ki (P. falc. mut) [6]: 39; Ki (human)/Ki (P. falc. wt) [6]: 127; Ki (human)/Ki (T. cruzi) [6]: 9.1

Which Ki ([1]; Ki(wt) nM) does the source give for NC1=NC(c2cccc(Oc3ccccc3)c2)N(c2cccc(-c3ccccc3)c2)C(N)=N1 (stereo not shown) [1-m-biphenyl-2-m-phenoxyphenyl-4,6-diamino-1,2-dihydro-1,3,5-triazine] here?
Its Ki is 2 nM.

And the Ki [2]?
Its Ki is 4.8 ± 0.9 nM.

What about the “Ki(mut)/Ki(wt)” value [3] of the same compound?
The value was 2.2.

With N#Cc1ccc(C2N=C(N)N=C(N)N2c2ccc(Cl)cc2)cc1 (stereo not shown) [(Ia) R2=p-cyanophenyl] as the compound, how does the Ki ([1]; Ki(wt) nM) read?
The Ki was 11.3 ± 1.4 nM.

What about the Ki [2] of the same compound?
The Ki was 205 ± 22 nM.

And the IC50 [4]?
The IC50 was 804 nM.

What about the Ki [7] of the same compound?
The Ki was 650 nM.

How did the Ki ([1]; Ki(wt) nM) turn out when NC1=NC(c2cccc(Oc3ccc(Cl)cc3)c2)N(c2ccc(Cl)cc2)C(N)=N1 (stereo not shown) [(Ia) R2=3-(4-chlorophenoxy)phenyl] was run?
The Ki was 1.4 ± 0.3 nM.

What about the Ki [2] of the same compound?
The Ki was 7.5 nM.

What about the “Ki(mut)/Ki(wt)” value [3] of the same compound?
Its value is 5.3.

And the IC50 [4]?
Its IC50 is 2850 nM.

Which results are given for NC1=NC(c2ccc(O)cc2)N(c2cccc(Cl)c2)C(N)=N1 (stereo not shown) [(Ib) R2=4-hydroxyphenyl]?
Ki ([1]; Ki(wt) nM): 59.1 ± 1 nM; Ki [2]: 57.7 ± 7.5 nM; Ki(mut)/Ki(wt) [3]: 1.0; IC50 [4]: 3070 nM; Ki ([5]; Human Ki (I50)(nM)): 56 nM; Ki (human)/Ki (P. falc. mut) [6]: 0.97; Ki (human)/Ki (P. falc. wt) [6]: 0.95; Ki (human)/Ki (T. cruzi) [6]: 1.17

With CC1(C)N=C(N)N=C(N)N1c1ccc(Cl)cc1 [cycloguanil, Cycloguanil, reference compound] as the compound, how does the Ki ([1]; read-out: Ki(wt)) read?
The Ki was 1.5 nM.

And the Ki [2]?
The Ki was 1310 nM.

And the IC50 [4]?
The IC50 was 40 nM.

What about the Ki ([7]; T. cruzi DHFR-TS, read-out: T. cruzi Ki (I50)) of the same compound?
The Ki was 370 nM.

For CCCOc1ccc(C2N=C(N)N=C(N)N2c2cccc(Cl)c2)cc1 (stereo not shown) [(Ib) R2=4-(n-propyloxy)phenyl], which Ki [2] is on record?
Its Ki is 9.3 ± 0.6 nM.

And the IC50 [4]?
Its IC50 is 248 nM.

COc1cccc(C2N=C(N)N=C(N)N2c2cccc(Cl)c2)c1 (stereo not shown) [(Ib) R2=3-methoxyphenyl] was tested. Which Ki ([1]; Ki(wt) nM) did it give?
Its Ki is 5.4 ± 0.2 nM.

What about the Ki [2] of the same compound?
Its Ki is 59.1 ± 6.3 nM.

What about the “Ki(mut)/Ki(wt)” value [3] of the same compound?
The value was 10.9.

What about the IC50 [4] of the same compound?
Its IC50 is 4370 nM.

What about the Ki [7] of the same compound?
The Ki was 240 nM.

And the Selectivity [7]?
The Selectivity was 5.3.

What about the Ki ([5]; Human Ki (I50)(nM)) of the same compound?
The Ki was 1270 nM.

With COc1ccc(Oc2cccc(C3N=C(N)N=C(N)N3c3ccc(Cl)c(Cl)c3)c2)cc1 (stereo not shown) [(Ic) R2=3-(4-methoxyphenoxy)phenyl] as the compound, how does the Ki ([1]; Ki(wt) nM) read?
The Ki was 1.9 ± 0.3 nM.

What about the Ki [2] of the same compound?
Its Ki is 7.4 ± 0.8 nM.

What about the “Ki(mut)/Ki(wt)” value [3] of the same compound?
Its value is 3.9.

What about the IC50 [4] of the same compound?
Its IC50 is 2930 nM.

Which results are given for NC1=NC(c2ccccc2)N(c2ccc(Cl)cc2)C(N)=N1 (stereo not shown) [(Ia) R2=phenyl, 1-(4′-Chlorophenyl)-2-phenyl-4,6-diamino-1,2-dihydro-1,3,5-triazine hydrochloride]?
Ki [2]: 49.3 ± 3.3 nM; IC50 [4]: 27 nM; Ki [7]: 42 nM; Ki ([5]; read-out: Human Ki (I50)): 3870 nM

Which results are given for COc1cc(OC)cc(C2N=C(N)N=C(N)N2c2cccc(Cl)c2)c1 (stereo not shown) [(Ib) R2=3,5-dimethoxyphenyl]?
Ki ([1]; Ki(wt) nM): 79.4 ± 7 nM; Ki [2]: 30.9 ± 3 nM; Ki(mut)/Ki(wt) [3]: 0.4; IC50 [4]: > 50000 nM
